What was measured:
[1] = PPB (human); type: in vitro ADME; conditions: plasma
[2] = target: T1, P. falciparum bc1 complex cytochrome c reductase (Pfbc1) (Plasmodium falciparum, UniProt Q02768); test: Pfbc1 native assay (cytochrome c reduction by parasite extract); type: biochemical; conditions: atovaquone 1 μM positive control, X ± S.D., N = 4
T1 construct: Parasite extract was then prepared by disruption with a sonicating probe; endogenous in cells; host or cells: P. falciparum strain 3D7 blood-stage culture, sonicated parasite extract
T1 sequence (Q02768 1-376): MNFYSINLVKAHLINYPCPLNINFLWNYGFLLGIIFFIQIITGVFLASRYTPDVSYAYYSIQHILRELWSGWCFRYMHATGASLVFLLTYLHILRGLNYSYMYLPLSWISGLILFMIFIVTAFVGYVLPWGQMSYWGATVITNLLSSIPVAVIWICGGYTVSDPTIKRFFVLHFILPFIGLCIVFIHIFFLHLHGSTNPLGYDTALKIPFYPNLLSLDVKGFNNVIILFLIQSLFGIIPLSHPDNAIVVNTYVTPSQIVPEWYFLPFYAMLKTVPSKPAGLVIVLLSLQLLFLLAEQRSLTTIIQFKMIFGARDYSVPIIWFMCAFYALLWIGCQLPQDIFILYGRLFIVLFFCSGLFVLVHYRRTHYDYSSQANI
Procedure: P. falciparum 3D7 strain were obtained from the Liverpool School of Tropical Medicine. Protease cocktail inhibitor was obtained from Roche. Bradford protein assay dye reagent was obtained from Bio-Rad. All other reagents were obtained from Sigma-Aldrich. Decylubiquinol was produced as per Fisher et al. ([2009]). In brief, 25 mg of decylubiquinone were dissolved in 400 μL of nitrogen-saturated hexane. An equal volume of aqueous 1 M sodium dithionite was added, and the mixture vortexed until colorless. The organic phase containing the decylubiquinol was collected, the solvent was evaporated under N2 and the decylubiquinol finally dissolved in 100 μL of 96% ethanol (acidified with 10 mM HCl). Concentrations of decylubiquinol was determined spectrophotometrically on a Cary 300 Bio UV/visible spectrophotometer (Varian, UK) from absolute spectra, using ε288−−320 = 8.1 mM^−1.cm^−1. Decylubiquinol was stored at −80°C and used within 2 weeks. […]
The protocol for the preparation of parasite extract was adapted from Fisher et al. ([2009]). […] The protein concentration of the parasite extract was determined by Bradford protein assay (Bio-Rad).
P. falciparum bc1 complex cytochrome c reductase (Pfbc1) activity was measured by monitoring cytochrome c reduction at 550 vs. 542 nm using a Cary 300 Bio UV-Visible Spectrophotometer (Varian, UK), using a protocol adapted from Fisher et al. ([2009]). […]

## Cc1[nH]c2c(c(=O)c1-c1ccc(Oc3ccc(OC(F)(F)F)cc3)cc1)CCCC2 [JAG21, 2-Methyl-3-(4-(4-(Trifluoromethoxy)Phenoxy)Phenyl)-5,6,7,8-Tetrahydroquinolin-4-One]
[1]
  fraction unbound: 0.001
[2]
  inhibition at 1 µM: 86.4 ± 3.2%

— paper PMC7311950, “Potent Tetrahydroquinolone Eliminates Apicomplexan Parasites” (Frontiers in Cellular and Infection Microbiology, 2020)
